# Data reported in patent US20260176289A1, “SMALL MOLECULE INHIBITORS OF KRAS PROTEINS” (Merck Sharp & Dohme LLC, priority 2022, published 2026).
# Like-named read-outs stand apart in the source and are kept apart here.
# Assays:
# [1] = molecular target: KRAS-WT (Homo sapiens, UniProt P01116); assay: SOS-catalyzed nucleotide exchange assay (Procedure A, TR-FRET), KRAS-WT; type: biochemical
# In short: (§1)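 Inhibitors stabilizing the Bodipy-GDP state are detected as retained TR-FRET from a preformed biotinylated RAS/Tb-streptavidin complex. They are preincubated 60 min at room temperature, then human SOS and 3 mM GTP are added. G12V runs 90 min at 1.25 nM RAS/160 nM SOS. G12C (3 nM), WT (1 nM) and NRAS (1.25 nM) run 60 min with 40 nM SOS.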
# [2] = molecular target: KRAS-G12D (Homo sapiens, UniProt P01116, G12D); assay: SOS-catalyzed nucleotide exchange assay (Procedure A, TR-FRET), KRAS-G12D; type: biochemical
# Chain of KRAS-G12D (P01116 with tags, fused parts or gaps isoform P01116-2 G12D): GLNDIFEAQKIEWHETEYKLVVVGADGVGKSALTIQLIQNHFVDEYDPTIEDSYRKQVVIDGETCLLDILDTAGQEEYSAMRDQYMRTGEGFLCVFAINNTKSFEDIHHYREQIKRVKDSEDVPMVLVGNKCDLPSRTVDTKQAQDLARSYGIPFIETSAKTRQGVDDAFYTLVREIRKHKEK
# In short: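 Signal ratio (520/495 nm, excitation 340 nm) reports Bodipy-GDP retention on biotinylated RAS after SOS-catalyzed exchange with 3 mM GTP. SOS was 40 nM, except 160 nM for G12V. Room-temperature exchange lasted 60 min (90 min for G12V), following a 60 min compound preincubation.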
# [3] = molecular target: KRAS-G12V (Homo sapiens, UniProt P01116, G12V); assay: SOS-catalyzed nucleotide exchange assay (Procedure A, TR-FRET), KRAS-G12V; type: biochemical
# Chain of KRAS-G12V (P01116 with tags, fused parts or gaps isoform P01116-2 G12V): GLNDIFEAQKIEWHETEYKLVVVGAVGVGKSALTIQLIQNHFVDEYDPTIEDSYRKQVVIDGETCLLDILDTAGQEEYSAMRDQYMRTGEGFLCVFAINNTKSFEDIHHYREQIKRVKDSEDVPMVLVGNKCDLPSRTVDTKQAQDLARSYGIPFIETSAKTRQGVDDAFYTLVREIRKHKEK
# In short: as §1
# [4] = test system: MKN-1 cells; assay: Cellular phospho-ERK assay, MKN-1 cells (amplified wild-type KRAS); type: cell-based; details: Homo sapiens, read-out: MKN1 pERK IC50
# Description: (§2) Procedure for Cellular Phospho-ERK Assay in KRAS Wild Type and Mutant (G12D, G12V) Cell Lines
# (§3) MKN-1 cells (JCRB JCRB0252) containing amplified wild-type KRAS, were cultured in growth medium that contains RPMI 1640-GlutaMAX™-I (ThermoFisher Scientific 61870) containing 10% heat inactivated fetal bovine serum (ThermoFisher Scientific 10091148), 1 mM sodium pyruvate and 10 mM HEPES. PANC08.13 cells (ATCC® CRL-2551™), containing homozygous KRAS-G12D activating mutation, were cultured in growth medium made of RPMI1640-GlutaMAX™-I (ThermoFisher Scientific 61870) containing 15% heat inactivated fetal bovine serum (ThermoFisher Scientific 10091148)). AsPC-1 cells (ATCC® CRL-1682™), containing homozygous KRAS-G12D activating mutation, were cultured in T150 flask in growth medium (RPMI medium 1640-GlutaMAX™-I (ThermoFisher Scientific 61870) containing 10% fetal bovine serum (ThermoFisher Scientific 10091148)). SW620 cells (ATCC® […]), containing homozygous KRAS-G12V activating mutation, were cultured in growth medium that contains RPMI 1640-GlutaMAX™-I (ThermoFisher Scientific 61870) containing 10% heat inactivated fetal bovine serum (ThermoFisher Scientific 10091148).
# (§4) Cells for the assay were harvested in growth medium after TrypLE (ThermoFisher scientific 12604021) digestion and were seeded in a 384-well collagen coated cell culture plate (Corning 356702) at a density of 10,000-15,000 cells/20 μL/well, and incubated at 37° C., 5% CO2 overnight. The compound (with 10 mM stock concentration) dose-response titrations were prepared [30 μM final ERK detection assay concentration and 1:3 dilutions, 10-point dose response] and appropriate amounts (270 nL) of test compounds were dispensed in a 384-well intermediate plate using an Echo 550 liquid handler. 30 μL/well of RPMI medium 1640-GlutaMAX™—I was added to the intermediate plate and the contents of the intermediate plate (10 μL/well) were then transferred to the 384-well collagen coated cell culture plate, which was incubated at 37° C., 5% CO2 for 2 hours. After removal of medium from the collagen coated cell culture plate, cells were lysed in lysis buffer from Alpha SureFire® Ultra™ Multiplex p-ERK and total ERK assay kit (PerkinElmer MPSU-PTERK) containing Halt™ Protease and Phosphatase inhibitor cocktail (ThermoFisher Scientific 78446) at room temperature with constant shaking at 300 rpm for 30 minutes. The cell lysates were then transferred to an OptiPlate-384 plate (PerkinElmer 6005620), and the phosphorylation of ERK (p-ERK) and total ERK levels were detected by Alpha SureFire® Ultra™ Multiplex p-EEK kit and total ERK assay kit (PerkinElmer MPSU-PTERK) following the manufacturer's protocol. Assay plates were read on a En Vision Multimode Plate Reader (PerkinElmer), and the ratio of p-ERK vs. total ERK in each well was used as the final readout. Dose response curves were analyzed using a 4-parameter logistic model to calculate IC50 values using Spotfire software.
# [5] = test system: AsPC-1 cells; assay: Cellular phospho-ERK assay, AsPC-1 cells (homozygous KRAS-G12D); type: cell-based; details: Homo sapiens, read-out: AsPC1 pERK IC50
# In short: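 p-ERK/total ERK ratio, measured by AlphaLISA SureFire Ultra multiplex in lysates, was fitted to a 4-parameter logistic model for IC50. Compound exposure was 2 h at 37° C, 5% CO2, 10-point 1:3 dilutions from 30 μM final, on cells plated the previous night.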
# [6] = test system: SW620 cells; assay: Cellular phospho-ERK assay, SW620 cells (homozygous KRAS-G12V); type: cell-based; details: Homo sapiens, read-out: SW620 pERK IC50
# Description: as §2, §3, §4
# [7] = nucleotide exchange, read-out: KRAS WT GNE IC50
# [8] = nucleotide exchange, read-out: KRAS G12D GNE IC50
# [9] = nucleotide exchange, read-out: KRAS G12V GNE IC50
# [10] = amplified wild-type KRAS, 2 hours
# [11] = ASPC1, 2 h, 2 hours compound incubation
# [12] = SW-620, 2 hours compound incubation
# Chain of KRAS-WT (P01116 with tags, fused parts or gaps isoform P01116-2): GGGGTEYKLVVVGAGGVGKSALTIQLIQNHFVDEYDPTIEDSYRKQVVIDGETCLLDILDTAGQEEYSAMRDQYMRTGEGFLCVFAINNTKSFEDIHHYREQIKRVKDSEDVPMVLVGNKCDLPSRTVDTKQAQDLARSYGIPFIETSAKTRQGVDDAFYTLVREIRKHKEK
SMILES,"IC50 [1, 7]","IC50 [2, 8]","IC50 [3, 9]",IC50 ([4]; 2 hours compound incubation),"IC50 [5, 11]","IC50 [6, 12]","IC50 [4, 10]","IC50 ([5]; ASPC1, 2 h, KRAS-G12D, 2 hours)","IC50 ([6]; SW-620, KRAS-G12V, 2 hours)","IC50 ([1]; KRAS WT GNE IC50, nucleotide exchange)","IC50 ([2]; KRAS G12D GNE IC50, nucleotide exchange)","IC50 ([3]; KRAS G12V GNE IC50, nucleotide exchange)","IC50 ([5]; ASPC1, KRAS-G12D, 2 hours)"
C[C@@H]1CCCc2cc3[nH]ncc3c(-c3nccc4c3sc3nc(OC[C@@]56CCCN5C[C@H](F)C6)nc(N5CCOC[C@@](C)(O)C5)c34)c21 [Ex-116],9.84 nM,4.87 nM,17.9 nM,,,,46.4 nM,56.6 nM,36.4 nM,,,,
"C[C@@]1(O)COCCN(c2nc(OC[C@@]34CCCN3C[C@H](F)C4)nc3sc4c(-c5c6c(cc7[nH]ncc57)CC=C6C5CC5)nccc4c23)C1 [Ex-105, (6S)-4-(8-(5-cyclopropyl-1,7-dihydrocyclopenta[f]inda-zol-4-yl)-2-(((2R,7aS)-2-fluorotetrahydro-1H-pyrrolizin-7a(5H)-yl)methoxy)pyrido[4′,3′:4,5]thieno[2,3-d]pyrimidin-4-yl)-6-methyl-1,4-oxazepan-6-ol]",72.2 nM,26.7 nM,37.2 nM,,,,136 nM,158 nM,80.5 nM,,,,
"C[C@@]1(O)COCCN(c2nc(OC[C@@]34CCCN3CC(=C(F)F)C4)nc3sc4c(-c5c(C6(F)CC6)c(Cl)cc6[nH]ncc56)nccc4c23)C1 [Ex-272, (6S)-4-(8-(6-chloro-5-(1-fluorocyclopropyl)-1H-indazol-4-yl)-2-(((S)-2-(difluoromethylene)tetra-hydro-1H-pyrrolizin-7a(5H)-yl)methoxy)pyri-do[4′,3′:4,5]thi-eno[2,3-d]pyrimidin-4-yl)-6-methyl-1,4-oxazepan-6-ol]",29.3 nM,3.18 nM,19.4 nM,,,,50.5 nM,62.4 nM,29.4 nM,,,,
"Cc1c2nc(OC[C@@]34CCCN3C[C@H](F)C4)nc(N3CCOC[C@@](C)(O)C3)c2n2ccnc(-c3c(C4CC4)c(Cl)cc4[nH]ncc34)c12 (single isomer, unassigned) [Ex-302]",18.6 nM,8.99 nM,17 nM,,,,49.5 nM,135 nM,48.9 nM,,,,
"C[C@@]1(O)COCCN(c2nc(OC[C@@]34CCCN3C[C@H](F)C4)nc3[se]c4c(-c5c(C6CC6)c(Cl)cc6[nH]ncc56)nccc4c23)C1 [Ex-289, (6S)-4-(8-(6-chloro-5-cyclopropyl-1H-indazol-4-yl)-2-(((2R,7aS)-2-fluorotetrahydro-1H-pyrrolizin-7a(5H)-yl)methoxy)pyri-do[4′,3′:4,5]seleno-pheno[2,3-d]pyrimidin-4-yl)-6-methyl-1,4-oxazepan-6-ol]",,,,,,,81.4 nM,,64.6 nM,22.3 nM,6.97 nM,26.9 nM,103 nM

# More lines, main results first:
"IC50 [1, 7]","IC50 [2, 8]","IC50 [3, 9]",IC50 ([4]; 2 hours compound incubation),"IC50 [5, 11]","IC50 [6, 12]",SMILES,"IC50 [4, 10]","IC50 ([5]; ASPC1, 2 h, KRAS-G12D, 2 hours)","IC50 ([6]; SW-620, KRAS-G12V, 2 hours)","IC50 ([1]; KRAS WT GNE IC50, nucleotide exchange)","IC50 ([2]; KRAS G12D GNE IC50, nucleotide exchange)","IC50 ([3]; KRAS G12V GNE IC50, nucleotide exchange)","IC50 ([5]; ASPC1, KRAS-G12D, 2 hours)"
17.8 nM,4.75 nM,39.8 nM,89.8 nM,67.3 nM,56.1 nM,"C[C@@]1(O)COCCN(c2nc(OC[C@@]34CCCN3C[C@]3(CC3(F)F)C4)nc3sc4c(-c5c(C6CC6)c(Cl)cc6[nH]ncc56)nccc4c23)C1 [Ex-212, (6S)-4-(8-(6-chloro-5-cyclopropyl-1H-indazol-4-yl)-2-(((1R,7a'S)-2,2-difluorodihydro-1′H,3′H-spiro[cyclo-propane-1,2′-pyrrol-izin]-7a′(5′H)-yl)-methoxy)pyrido [4′,3′:4,5]thieno[2,3-d]pyrimidin-4-yl)-6-methyl-1,4-oxaze-pan-6-ol]",,,,,,,
762 nM,104 nM,197 nM,84.2 nM,188 nM,117 nM,"CC1(F)CCN(C[C@@]2(COc3nc(N4CCOC[C@@](C)(O)C4)c4c(n3)sc3c(-c5c(C6(F)CC6)c(Cl)cc6[nH]ncc56)nccc34)CC2(F)F)CC1 [Ex-232, (6S)-4-(8-(6-chloro-5-(1-fluorocyclopropyl)-1H-indazol-4-yl)-2-(((R)-2,2-difluoro-1-((4-fluoro-4-methylpiperidin-1-yl)methyl)cyclopropyl)metho-xy)pyrido[4′,3′:4,5]thieno[2,3-d]pyrimidin-4-yl)-6-methyl-1,4-oxazepan-6-ol]",,,,,,,
12.5 nM,3.09 nM,15.5 nM,36.3 nM,45.7 nM,42.8 nM,"C[C@@]1(O)COCCN(c2nc(OC[C@]3(CN4CC5(CCOCC5)C4)CC3(F)F)nc3sc4c(-c5c(C6(F)CC6)c(Cl)cc6[nH]ncc56)nccc4c23)C1 [Ex-248, (6S)-4-(2-(((R)-1-((7-oxa-2-azaspiro[3.5]nonan-2-yl)methyl)-2,2-difluorocyclopropyl)methoxy)-8-(6-chloro-5-(1-fluorocyclopropyl)-1H-indazol-4-yl)pyrido[4′,3′:4,5]thieno[2,3-d]pyrimidin-4-y1)-6-methyl-1,4-oxazepan-6-ol]",,,,,,,
432 nM,200 nM,186 nM,513 nM,393 nM,459 nM,"Cc1cc2[nH]ncc2c(-c2nccc3c2sc2nc(OC[C@@]45CCCN4C[C@H](F)C5)nc(N4CCOCC5(CCCO5)C4)c23)c1C(F)(F)F (stereo partly drawn) [Ex-197, 10-(2-(((2R,7aS)-2-fluoro-tetrahydro-1H-pyrrolizin-7a(5H)-yl)methoxy)-8-(6-methyl-5-(trifluorometh-yl)-1H-indazol-4-yl)pyrido [4′,3′:4,5]thieno[2,3-d]pyrimidin-4-yl)-1,7-dioxa-10-azaspiro[4.6]undecane]",,,,,,,
72.3 nM,27.8 nM,70.6 nM,171 nM,176 nM,130 nM,"C[C@@]1(O)COCCN(c2nc(OC[C@]34C[C@@H](F)CN3CC3(CC3)C4)nc3sc4c(-c5c(C6CC6)c(Cl)cc6[nH]ncc56)nccc4c23)C1 [Ex-220, (6S)-4-(8-(6-chloro-5-cyclopropyl-1H-indazol-4-yl)-2-(((6R,7a′S)-6′-fluorodihydro-1H, 3H-spiro[cyclopro-pane-1,2′-pyrrol-izin]7a′(5′H)-yl)-methoxy)pyrido [4′,3′:4,5]thieno[2,3-d]pyrimidin-4-yl)-6-methyl-1,4-oxaze-pan-6-ol]",,,,,,,
